{"source": "patent US5508180A", "about": "“Biocatalytic oxidation using soybean peroxidase” (Enzymol International, Inc., priority 1994, dated 1996)", "target": "T1, soybean peroxidase (Glycine max, UniProt O22443)", "T1 construct": "secreted heme glycoprotein, reported 37 kDa", "T1 sequence (O22443 27-332)": "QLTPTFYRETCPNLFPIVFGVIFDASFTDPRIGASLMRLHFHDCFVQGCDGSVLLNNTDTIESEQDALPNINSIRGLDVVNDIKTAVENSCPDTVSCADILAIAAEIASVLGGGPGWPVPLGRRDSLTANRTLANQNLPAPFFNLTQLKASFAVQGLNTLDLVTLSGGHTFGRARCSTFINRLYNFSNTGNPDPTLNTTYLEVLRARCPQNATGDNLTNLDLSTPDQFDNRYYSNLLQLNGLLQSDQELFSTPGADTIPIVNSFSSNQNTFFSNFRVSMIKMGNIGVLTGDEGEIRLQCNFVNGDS", "assay": "Demethylation (oxidation) of methoxybenzenes by soybean peroxidase, absorbance of quinone products", "format": "biochemical", "conditions": "for dA per minute (250 nm) / dA per minute (310 nm) / dA per minute (286 nm) / dA per minute (289 nm): pH 2", "experimental": "0.1 ml soybean peroxidase (120 purpurogallin units/ml) stock solution was added to 3 ml veratryl alcohol solution (1 g veratryl alcohol in 750 ml water) and vortexed in a test tube. 20 μl peroxide stock solution was added, mixed and the solution poured into a 1 cm path, 4 ml quartz cuvette. Using a Shimadzu UV-160 double beam recording spectophotometer, the change in absorbance of the sample compared to a reference cuvette containing 3 ml veratryl alcohol solution only was monitored every minute by scanning wavelengths from 500 to 200 nm. The peak wavelength of 308 nm was identified as veratryl aldehyde and was used for further monitoring. The kinetics of the reaction were determined from the linear portion of the increase in absorbance.\nUsing assay methods described in Example 15, three methoxybenzenes were tested for oxidation by soybean peroxidase (SBP). These compounds were: 1,4-Dimethoxybenzene (DMB), 1,2,3-Trimethoxybenzene (TMB) and 1,3,5-Trimethoxybenzene (TMB). Stock solutions were prepared by heating 1 g (0.5g 1,3,5-TMB) in 750 ml water to 60 deg C on a stirring hot plate, allowing the solution to cool to room temperature and adjusting the pH to 2 with HCl. Assays were performed as described in Example 1. Initially, a scan of wavelengths from 500 to 200 nm every minute was done during each substrate oxidation to find suitable wavelengths to monitor for the corresponding quinone products.\nFor example, a comparison of the rates of oxidation of 1,4-dimethoxybenzene at pH 2 where the pH was adjusted with HCl in one case and with HNO3 in a second case is shown in Table 11."}
{"smiles": "COc1ccc(OC)cc1", "note": "[1,4-DMB, 1,4-Dimethoxybenzene]", "values": [{"measurement": "dA per minute (250 nm)", "setting": "25 °C", "result": 1.0134}, {"measurement": "dA per minute (310 nm)", "setting": "25 °C", "result": 0.3566}, {"measurement": "dA per minute (250 nm)", "setting": "35 °C", "result": 1.1306}, {"measurement": "dA per minute (310 nm)", "setting": "35 °C", "result": 0.3942}, {"measurement": "dA per minute (250 nm)", "setting": "45 °C", "result": 1.817}, {"measurement": "dA per minute (310 nm)", "setting": "45 °C", "result": 0.745}, {"measurement": "dA per minute (250 nm)", "setting": "55 °C", "result": 2.73}, {"measurement": "dA per minute (310 nm)", "setting": "55 °C", "result": 1.088}, {"measurement": "dA per minute (250 nm)", "setting": "65 °C", "result": 2.99}, {"measurement": "dA per minute (310 nm)", "setting": "65 °C", "result": 0.437}, {"measurement": "dA per minute (250 nm)", "setting": "75 °C", "result": 0.883}, {"measurement": "dA per minute (310 nm)", "setting": "75 °C", "result": 0.129}, {"measurement": "dA per minute (250 nm)", "setting": "85 °C", "result": 0.0619}, {"measurement": "dA per minute (310 nm)", "setting": "85 °C", "result": 0.0237}, {"measurement": "dA per minute (250 nm)", "setting": "95 °C", "result": 0.0777}, {"measurement": "dA per minute (310 nm)", "setting": "95 °C", "result": 0.0296}, {"measurement": "dA 250 nm per min", "setting": "pH 2 adjusted with HCl", "result": 1.275}, {"measurement": "dA 310 nm per min", "setting": "pH 2 adjusted with HCl", "result": 0.3273}, {"measurement": "dA 250 nm per min", "setting": "pH 2 adjusted with HNO3", "result": 0.7202}, {"measurement": "dA 310 nm per min", "setting": "pH 2 adjusted with HNO3", "result": 0.2934}]}
{"smiles": "COc1cc(OC)cc(OC)c1", "note": "[1,3,5-TMB, 1,3,5-Trimethoxybenzene]", "values": [{"measurement": "dA per minute (286 nm)", "setting": "35 °C", "result": 0.0282}, {"measurement": "dA per minute (286 nm)", "setting": "45 °C", "result": 0.474}, {"measurement": "dA per minute (286 nm)", "setting": "55 °C", "result": 0.097}, {"measurement": "dA per minute (286 nm)", "setting": "65 °C", "result": 0.1724}, {"measurement": "dA per minute (286 nm)", "setting": "75 °C", "result": 0.0262}]}
{"smiles": "COc1cccc(OC)c1OC", "note": "[1,2,3-TMB, 1,2,3-Trimethoxybenzene]", "values": [{"measurement": "dA per minute (289 nm)", "setting": "25 °C", "result": 0.0147}, {"measurement": "dA per minute (289 nm)", "setting": "35 °C", "result": 0.0272}, {"measurement": "dA per minute (289 nm)", "setting": "45 °C", "result": 0.0893}, {"measurement": "dA per minute (289 nm)", "setting": "55 °C", "result": 1.1161}, {"measurement": "dA per minute (289 nm)", "setting": "65 °C", "result": 0.0301}, {"measurement": "dA per minute (289 nm)", "setting": "75 °C", "result": 0.0142}]}
